According to PubChem BioAssay AID212 (DTP/NCI, 2004):
Values joined by “and” are separate entries in the source; they are usually repeats but may differ in a detail not shown here. Equal values may be shown once. Inconclusive results are not listed. *1 amine or outer side, *2 acyl side, *3 side chain or, on linkers, in order; H or OH if unused. Where a SMILES comes first, the peptide text is derived from it. Bridges are numbered along the chain shown (N, C = ends). Roman numbers before positions name the chains, in order. [ ]: non-standard residue; d: D form. Actinocin(9to1) = Cc1c2oc3c(C)ccc(C(=O)[*:1])c3nc-2c(C(=O)[*:2])c(N)c1=O; aThr = C[C@H](O)[C@H](N)C(=O)O; NMeV = CN[C@H](C(=O)O)C(C)C; Sar = CNCC(=O)O

System: BDF1 mice, colon carcinoma 38 sc, T/C %
Experiment: NCI In Vivo Anticancer Drug Screen. Data for tumor model Colon Carcinoma 38 (subcutaneous) in B6D2F1 (BDF1) mice
Settings: endpoint: median tumor weight (est.), schedule: Q07DX002 (ip), higher = larger tumour
In short: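 Mice with transplanted tumors are treated with compound or vehicle. Survival or tumor size is then measured in both groups. The ratio of treated to control gives the reported figure.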

[1] = dose: 12.5 mg/kg/injection, vehicle: saline
[2] = dose: 25.0 mg/kg/injection, vehicle: saline
[3] = dose: 50.0 mg/kg/injection, vehicle: saline
[4] = dose: 100.0 mg/kg/injection, vehicle: saline
[5] = dose: 200.0 mg/kg/injection, vehicle: saline
[6] = dose: 25.0 mg/kg/injection, vehicle: Klucel (hydroxypropylcellulose) (HPC)
[7] = dose: 400.0 mg/kg/injection, vehicle: saline with Tween-80

For `Nc1nc(/C=C(/O)c2ccccc2)c2ncn(C3OC(CO)C(O)C3O)c2n1` (configuration not stated), the T/C (dose: 12.5 mg/kg/injection, vehicle: distilled water + Tween-80) was 100 % of control, the T/C [1] was 120 % of control and the T/C (dose: 25.0 mg/kg/injection, vehicle: distilled water + Tween-80) was 85 % of control. The T/C [2] was 87 % of control, the T/C [3] was 89 % of control and the T/C (dose: 100.0 mg/kg/injection, vehicle: distilled water + Tween-80) was 110 % of control. For the same compound, the T/C [4] was 99 % of control and the T/C [5] was 120 % of control.
With `Oc1c(Cl)cc(Cl)cc1C1N2CCCCC2C2c3cccn3-c3ccccc3N21` (configuration not stated) the T/C [6] was 82 % of control, the T/C (dose: 50.0 mg/kg/injection, vehicle: Klucel (hydroxypropylcellulose) (HPC)) was 102 % of control and the T/C (dose: 100.0 mg/kg/injection, vehicle: Klucel (hydroxypropylcellulose) (HPC)) was 69 % of control. The T/C (dose: 200.0 mg/kg/injection, vehicle: Klucel (hydroxypropylcellulose) (HPC)) was 104 % of control and the T/C (dose: 400.0 mg/kg/injection, vehicle: Klucel (hydroxypropylcellulose) (HPC)) was 67 % of control.
With `Cc1c2oc3c(C)ccc(C(=O)N[C@@H]4C(=O)N[C@H](C(C)C)C(=O)N5CCC[C@H]5C(=O)N(C)CC(=O)N(C)[C@@H](C(C)C)C(=O)O[C@H]4C)c3nc-2c(C(=O)N[C@@H]2C(=O)N[C@H](C(C)C)C(=O)N3CCC[C@H]3C(=O)N(C)CC(=O)N(C)[C@@H](C(C)C)C(=O)O[C@H]2C)c(N)c1=O` (I: [aThr][dV]P[Sar][NMeV] / II: [aThr][dV]P[Sar][NMeV]; ester I:1-I:C, II:1-II:C; linker I:N-II:N via Actinocin(9to1)) the T/C (dose: 100.0 micrograms/kg/injection, vehicle: saline + alcohol) was 104 % of control, the T/C (dose: 200.0 micrograms/kg/injection, vehicle: saline + alcohol) was 77 % of control and the T/C (dose: 400.0 micrograms/kg/injection, vehicle: saline + alcohol) was 19 % of control.
`Cc1cc2nc3c(=O)[nH]c(=O)nc-3n(CC(O)C(O)C(O)C(O)CO)c2cc1C` (configuration not stated) was tested, and the T/C [3] was 100 % of control, the T/C [4] was 124 % of control and the T/C (dose: 100.0 mg/kg/injection, vehicle: suspension in saline) was 77 % of control. For the same compound, the T/C [5] was 108 % of control, the T/C (dose: 400.0 mg/kg/injection, vehicle: saline) was 100 % of control and the T/C (dose: 800.0 mg/kg/injection, vehicle: saline) was 78 % of control. The T/C (dose: 800.0 mg/kg/injection, vehicle: suspension in saline) was 58 % of control and 69 % of control and the T/C (dose: 1600.0 mg/kg/injection, vehicle: saline) was 72 % of control.
In the case of `O=C1NC(=O)C2C3C=CC(C12)C1C2C(=O)NC(=O)C2C31` (configuration not stated), the T/C [7] is reported as 29 % of control and 50 % of control.
With `C=CS(C=C)=NS(=O)(=O)c1ccc(C)cc1` the T/C (dose: 1.56 mg/kg/injection, vehicle: Klucel (hydroxypropylcellulose) (HPC)) was 110 % of control, the T/C (dose: 6.25 mg/kg/injection, vehicle: Klucel (hydroxypropylcellulose) (HPC)) was 110 % of control and the T/C (dose: 12.5 mg/kg/injection, vehicle: Klucel (hydroxypropylcellulose) (HPC)) was 111 % of control. The T/C [6] was 94 % of control.
With `CNC(=O)ON(C(C)=O)C(=O)NC` the T/C [2] was 87 % of control and 106 % of control and the T/C [4] was 103 % of control.
`OCCN1CCN(CCCN2c3ccccc3Sc3ccc(C(F)(F)F)cc32)CC1` was tested, and the T/C (dose: 3.12 mg/kg/injection, vehicle: saline) was 115 % of control, the T/C (dose: 6.25 mg/kg/injection, vehicle: saline) was 91 % of control and the T/C [1] was 61 % of control. For the same compound, the T/C [2] was 67 % of control and the T/C [3] was 56 % of control.
For `Cn1ccc(=Nc2ccc(NC(=O)c3ccc(N=c4ccn(C)c5ccc([N+](=O)[O-])cc45)cc3[N+](=O)[O-])cc2)cc1`, the T/C (dose: 25.0 mg/kg/injection, vehicle: saline with Tween-80) was 99 % of control, the T/C (dose: 50.0 mg/kg/injection, vehicle: saline with Tween-80) was 60 % of control and the T/C (dose: 100.0 mg/kg/injection, vehicle: saline with Tween-80) was 105 % of control. The T/C (dose: 200.0 mg/kg/injection, vehicle: saline with Tween-80) was 90 % of control, the T/C [7] was 29 % of control and the T/C (dose: 800.0 mg/kg/injection, vehicle: saline with Tween-80) was 67 % of control.
